{"source": "patent US20230366023A1", "about": "“METHODS AND COMPOSITIONS FOR BIOLUMINESCENCE-BASED SEQUENCING” (BGI Shenzhen Co., Ltd., priority 2020, published 2023)", "key": {"[1]": {"tested_on": "Gluc", "test": "Selective deactivation by DTT (FIG. 18B)", "format": "biochemical, Gaussia princeps", "procedure": "(§1) Selective deactivation agents that are suitable for the invention include, but not limited to, Dithiothreitol (DTT), beta-mercaptoethylamine, tris-carboxyethylphosphine (TCEP). The suitable concentrations of the agent (e.g., DTT) for selectively deactivating the first luciferease may range from 0.001M to 2M, e.g., from 0.01M to 0.5M, from 0.05M to 1M, 0.07M to 0.5M, or about 0.1M.\nIn each cycle a mixture of NLRTs were incubated with the DNA template to be sequenced in the presence of a DNA polymerase. These NLRTs include 7-deaza-7-biotin-linker-3′-azidomethyl-dATP, 5-biotin-linker-3′-azidomethyl-dTTP, 5-digoxin-linker-3′-azidomethyl-dTTP, 5-digoxin-linker-3′-azidomethyl-dCTP, and 3′-azidomethyl-dGTP. Streptavidin-conjugated Gluc (recognizing biotin-labeled nucleotides A and T) was added to the sequencing flow cell followed by adding substrate CTZ. Bioluminesnce signals from the cleavage of CTZ by the Gluc was collected. […] Subsequently, Nluc-conjugated anti-Digoxin antibody was added to the flow cell to bind the Digoxin-labeled nucleotides (T and C). No signals for G were detected as expected."}, "[2]": {"target": "T1, Nluc (Oplophorus gracilirostris, UniProt Q9GV45, A31E/A60N/A81I/F95D/I117V/K70R/L54V/L99Q/M102K/N193R/P142E/Q151K/Q38R/Q45L/V71I/Y165I)", "T1 construct": "purchased Prolume Inc", "test": "Selective deactivation by DTT (FIG. 18A)", "format": "biochemical", "description": "as §1"}, "[3]": {"target": "T2, Nluc mutant (Oplophorus gracilirostris, UniProt Q9GV45, A31E/A60N/A81I/F95D/I117V/K70R/L54V/L99Q/M102K/N193R/P142E/Q151K/Q38R/Q45L/V71I/Y165I)", "T2 construct": "purchased Prolume Inc", "test": "Screening of CTZ analogs as substrate (FIG. 4)", "format": "biochemical", "conditions": "with Nluc mutant"}, "[4]": {"test": "Long-term shelf life of substrates in reaction buffer (FIG. 6)", "format": "physicochemical", "conditions": "300 uM in reaction buffer, −20° C.", "procedure": "Long-term shelf life (long-term stability) was also evaluated for the substrate reaction buffer formulation. 300 uM substrate was diluted in the reaction buffer and stored at −20° C. One aliquot was thaw and tested against the fresh luciferase. Data at each time point was the relative signal intensity ratio compared to a fresh luciferase/substrate pair."}, "[5]": {"test": "On-board stability of substrates in reaction buffer (FIG. 5)", "format": "physicochemical", "conditions": "room temperature 24 hours in reaction buffer, compared with fresh condition", "procedure": "The term “on-board stability” refers to the stability of […] in reaction buffer under the room temperature for 24 hours.\nTo develop the substrate reaction buffer into a robust reagent kit for the bioluminescence-based sequencing platform, both on-board stability and long term shelf life have been evaluated. […] We evaluated the room temperature stability for 24 hours (referred as on-board stability) for both CTZ and f-CTZ in the reaction buffer formulation listed above."}, "[6]": {"test": "Solubility of substrates", "format": "physicochemical", "procedure": "An optimal organic solvent as substrate stock buffer was needed to obtain good solubility and good stability. Different organic solvents and mixes were tested, such as ethanol, propylene glycol, methonal, DMSO, and mixes of these solvents at different ratios."}, "[7]": {"conditions": "relative; each luciferase with the substrate listed in Table 1", "description": "Preferably the luciferase is relatively small (e.g., less than 30 KDa) so that they can be readily engineered, e.g., be coupled to or fused to an affinity reagent disclosed herein. […] Other non-limiting examples of luciferases that can be used include Nanoluc (Promega) and NanoKaz (NanoLight Technology), which also comprise a sequence of SEQ ID NO: 2."}, "[8]": {"test": "Stability of luciferases in cells (Table 1)", "format": "cell-based"}, "[9]": {"target": "T1, Nluc", "test": "Signal and thermostability after Traut's modification (FIG. 11C, 11D)", "format": "biochemical", "description": "(§2) Other conjugation methods were also attempted to avoid the side reactions from SMCC. […] After purification of each reaction, the luciferase after Traut's treatment and the antibody after SMCC treatment were mixed together to react through the —SH group on the luciferase and maleimide on the SMCC group on antibody.\nBeside signal evaluation, stability study had also been investigated. […]"}, "[10]": {"tested_on": "Gluc", "test": "Signal and thermostability after Traut's modification (FIG. 11C, 11D)", "format": "biochemical, Gaussia princeps", "procedure": "as §2\nBeside signal evaluation, stability study had also been investigated. […] For Nluc, Traut's modification (1:1 ratio) helps to improve stability and signal for about 30% at 50° C."}, "[11]": {"tested_on": "Gluc", "test": "Luciferase signal after incubation with SMCC linker or iodoacetamide (FIG. 10B)", "format": "biochemical, Gaussia princeps", "procedure": "(§3) We investigated the detailed luciferase structures to find the reason for the signal drop. […] To confirm this hypothesis, lodoacetamide was used to incubate with both Gluc and Nluc. Lodoacetamide can bind covalently to the thiol group of cysteine so the protein cannot form disulfide bonds, as illustrated in FIG. 10A. […] This was the reason why there is signal loss after incubating the SMCC with Nluc/Gluc which leads to low signal intensity for the final antibody conjugates."}, "[12]": {"target": "T1, Nluc", "test": "Luciferase signal after incubation with SMCC linker or iodoacetamide (FIG. 10B)", "format": "biochemical", "conditions": "Nluc:iodoacetamide 1:10 ratio at RT for 30 min", "procedure": "as §3"}, "[13]": {"test": "Cross-substrate reactivity of Nluc with the Gluc substrate (FIG. 3)", "format": "biochemical", "method": "In some embodiments, the luciferase is incubated with the substrate for a sufficient amount of time to allow the development of the signal before detection. The step of signal development may last between 5 to 30 minutes, for example, about 10 minutes."}, "[14]": {"test": "Side-by-side signal intensity comparison of commercial luciferases (FIG. 2)", "format": "biochemical", "conditions": "integrated signal intensity from the first 10 sec", "description": "However, it was still multiple fold intensity higher than the rest of the counterparts. […] The integrated signal intensity from the first 10 sec was obtained from each luciferase/substrate pair to have the comparison."}}, "note": "“Also recorded” adds a separate entry of the source."}
{"molecule": "O[C@H](CS)[C@H](O)CS", "note": "(racemic) [DTT, Dithiothreitol]", "values": [{"measurement": "deactivation in sequencing flow cell", "setting": "[1]; 100 mM DTT", "value": "deactivated Gluc"}, {"measurement": "signal reduction after DTT treatment", "setting": "[1]; Gluc", "value": "more than 95%"}, {"measurement": "signal change after DTT treatment", "setting": "[2]", "value": "did not impair the activity; also recorded: no significant changes"}]}
{"molecule": "O=c1c(Cc2ccc(F)cc2)nc2c(Cc3ccccc3)[nH]c(-c3ccc(O)cc3)cn1-2", "note": "[f-CTZ, fluorinated coeleterazine]", "values": [{"measurement": "signal intensity among the different CTZ analog structures", "setting": "[3]", "value": "optimal substrate; also recorded: highest signal intensity"}, {"measurement": "long-term stability (relative signal intensity versus fresh luciferase/substrate pair)", "setting": "[4]; Nluc/f-CTZ, 4 months", "value": "no significant signal drop"}, {"measurement": "on-board stability", "setting": "[5]", "value": "no significant difference; also recorded: not significantly different"}, {"measurement": "water solubility", "setting": "[6]", "value": "not water-soluble"}]}
{"molecule": "firefly: firefly luciferase, substrate D-Luciferin", "values": [{"measurement": "Signal intensity", "setting": "[7]", "value": 1}, {"measurement": "Stability in cells", "setting": "[8]", "value": 0.00694, "unit": "days"}]}
{"molecule": "N=C1CCCS1", "note": "[Traut's reagent, 2-iminothiolane]", "values": [{"measurement": "thermostability after Traut's modification", "setting": "[9]; Nluc modified or unmodified, 70° C. for 1 hour", "value": "cannot survive 70 °C"}, {"measurement": "signal increase after Traut's modification (in words)", "setting": "[9]; Nluc, 1:1 molar ratio gives the highest signal", "value": "doubled"}, {"measurement": "signal increase after Traut's modification", "setting": "[10]; 1:1 molar ratio gives the highest signal", "value": 60, "unit": "%"}, {"measurement": "thermostability after Traut's modification", "setting": "[10]; 50° C. or 70° C. for 1 hour", "value": "worse stability"}]}
{"molecule": "NC(=O)CI", "note": "[lodoacetamide, Iodoacetamide]", "values": [{"measurement": "signal lost after reacting with iodoacetamide", "setting": "[11]; Gluc:iodoacetamide 1:10 ratio at RT for 30 min, fraction of signal", "value": "2/3"}, {"measurement": "signal lost after reacting with iodoacetamide", "setting": "[12]", "value": "lost all signal"}]}
{"molecule": "O=C(ON1C(=O)CCC1=O)C1CCC(CN2C(=O)C=CC2=O)CC1", "note": "(stereo not shown) [SMCC]", "values": [{"measurement": "signal drop after incubating with SMCC linker", "setting": "[11]; Gluc", "value": "15%-30%"}]}
{"molecule": "Oc1ccc(Cc2nc3c(Cc4ccccc4)nc(-c4ccc(O)cc4)cn3c2O)cc1", "note": "[CTZ, coeleterazine]", "values": [{"measurement": "long-term stability (relative signal intensity versus fresh luciferase/substrate pair)", "setting": "[4]; Gluc/CTZ, 6 months", "value": "no significant signal drop"}, {"measurement": "on-board stability", "setting": "[5]", "value": "no significant difference; also recorded: not significantly different"}, {"measurement": "water solubility", "setting": "[6]", "value": "not water-soluble"}]}
{"molecule": "Nluc: NanoZac luciferase polypeptide (SEQ ID NO: 2), Prolume Inc. (protein) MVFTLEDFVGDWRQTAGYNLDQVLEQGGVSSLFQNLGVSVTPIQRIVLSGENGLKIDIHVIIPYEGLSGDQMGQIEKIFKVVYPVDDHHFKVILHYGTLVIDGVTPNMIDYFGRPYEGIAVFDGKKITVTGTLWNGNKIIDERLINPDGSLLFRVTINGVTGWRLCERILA", "values": [{"measurement": "background signal when reacting with the Gluc substrate", "setting": "[13]; Nluc with CTZ", "value": "about 10%"}, {"measurement": "cross-substrate reactivity", "setting": "[13]; in words, FIG. 3", "value": "no significant cross-substrate reactivity"}, {"measurement": "signal compared to the Gluc mutant", "setting": "[14]", "value": "half"}]}
{"molecule": "Nanoluc: Nanoluc luciferase (Promega), substrate Furimazine (protein) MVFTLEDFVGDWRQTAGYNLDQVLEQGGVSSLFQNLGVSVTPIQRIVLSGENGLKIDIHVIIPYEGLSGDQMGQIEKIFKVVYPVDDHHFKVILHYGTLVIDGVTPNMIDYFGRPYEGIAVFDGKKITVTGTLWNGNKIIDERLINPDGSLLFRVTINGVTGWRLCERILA", "values": [{"measurement": "Signal intensity", "setting": "[7]", "value": 80}, {"measurement": "Stability in cells", "setting": "[8]", "value": 7.7, "unit": "days"}]}
{"molecule": "NanoKaz: NanoKaz luciferase (NanoLight Technology), substrate Coelenterazine-F (protein) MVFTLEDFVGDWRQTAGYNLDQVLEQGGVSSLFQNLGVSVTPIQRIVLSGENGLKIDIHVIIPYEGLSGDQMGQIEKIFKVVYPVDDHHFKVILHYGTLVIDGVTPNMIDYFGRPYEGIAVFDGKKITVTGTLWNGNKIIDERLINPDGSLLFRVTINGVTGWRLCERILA", "values": [{"measurement": "Signal intensity", "setting": "[7]", "value": 150}, {"measurement": "Stability in cells", "setting": "[8]", "value": 7.7, "unit": "days"}]}
{"molecule": "Gaussia: Gaussia luciferase (GLuc), substrate Coelenterazine (protein) MKPTENNEDFNIVAVASNFATTDLDADRGKLPGKKLPLEVLKELEANARKAGCTRGCLICLSHIKCTPKMKKFIPGRCHTYEGDKESAQGGIGEAIVDIPEIPGFKDLEPLEQFIAQVDLCVDCTTGCLKGLANVQCSDLLKKWLPQRCATFASKIQGQVDKIKGAGGDHHHHHH", "values": [{"measurement": "Signal intensity", "setting": "[7]", "value": 160}, {"measurement": "Stability in cells", "setting": "[8]", "value": 10.5, "unit": "days"}]}
